Where a name gives a salt, the structure may show the parent alone. Read-outs that look alike come from different tables or passages of the source.
What was measured:
[1] = molecular target: CRBN-DDB1 (Homo sapiens (Human), UniProt Q96SW2); experiment: Compound binding to CRBN by HTRF assay
Summary of the method: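 Ki calculated via Cheng-Prusoff from geometric-mean EC50 values, after normalizing the HTRF ratio to lenalidomide (active) and DMSO (neutral) controls. Compounds (11 points, 1:3 steps) incubated 30 min at ambient temperature with CRBN-DDB1 2.5 nM, anti-His Tb cryptate and Cy5-thalidomide tracer 100 nM.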

[2] = molecular target: NEK7 (Homo sapiens (Human), UniProt Q8TDX7+Q96SW2); experiment: NEK7 NanoBiT degradation assay in Cal51 NEK7 NanoBiT cell line; format: cell-based; conditions: Cal51 NEK7 NanoBiT cells, 24 hours; for Dmax: CAL-51
Sequence of NEK7 (Q8TDX7 whole entry): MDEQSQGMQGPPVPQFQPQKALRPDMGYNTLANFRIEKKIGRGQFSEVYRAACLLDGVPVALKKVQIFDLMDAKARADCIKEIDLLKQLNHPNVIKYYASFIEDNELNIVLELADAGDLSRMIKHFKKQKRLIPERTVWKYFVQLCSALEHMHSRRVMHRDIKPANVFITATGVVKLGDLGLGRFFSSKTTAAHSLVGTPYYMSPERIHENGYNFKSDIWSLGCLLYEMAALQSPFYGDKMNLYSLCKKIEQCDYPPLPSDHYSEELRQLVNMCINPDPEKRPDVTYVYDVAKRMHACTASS
Sequence of NEK7 (Q96SW2 whole entry): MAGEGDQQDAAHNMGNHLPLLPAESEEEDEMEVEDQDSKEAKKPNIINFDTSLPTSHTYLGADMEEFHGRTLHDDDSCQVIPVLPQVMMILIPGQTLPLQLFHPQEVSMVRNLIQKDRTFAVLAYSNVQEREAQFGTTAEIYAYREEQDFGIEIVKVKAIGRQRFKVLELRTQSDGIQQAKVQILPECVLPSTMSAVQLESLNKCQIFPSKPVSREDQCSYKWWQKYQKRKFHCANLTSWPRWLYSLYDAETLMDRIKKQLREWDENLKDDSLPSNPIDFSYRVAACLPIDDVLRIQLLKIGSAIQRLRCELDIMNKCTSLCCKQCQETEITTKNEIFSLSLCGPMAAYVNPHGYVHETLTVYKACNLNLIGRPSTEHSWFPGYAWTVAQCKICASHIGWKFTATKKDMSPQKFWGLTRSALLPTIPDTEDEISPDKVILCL
Sequence of NEK7 (Q16531 2-1140 partner): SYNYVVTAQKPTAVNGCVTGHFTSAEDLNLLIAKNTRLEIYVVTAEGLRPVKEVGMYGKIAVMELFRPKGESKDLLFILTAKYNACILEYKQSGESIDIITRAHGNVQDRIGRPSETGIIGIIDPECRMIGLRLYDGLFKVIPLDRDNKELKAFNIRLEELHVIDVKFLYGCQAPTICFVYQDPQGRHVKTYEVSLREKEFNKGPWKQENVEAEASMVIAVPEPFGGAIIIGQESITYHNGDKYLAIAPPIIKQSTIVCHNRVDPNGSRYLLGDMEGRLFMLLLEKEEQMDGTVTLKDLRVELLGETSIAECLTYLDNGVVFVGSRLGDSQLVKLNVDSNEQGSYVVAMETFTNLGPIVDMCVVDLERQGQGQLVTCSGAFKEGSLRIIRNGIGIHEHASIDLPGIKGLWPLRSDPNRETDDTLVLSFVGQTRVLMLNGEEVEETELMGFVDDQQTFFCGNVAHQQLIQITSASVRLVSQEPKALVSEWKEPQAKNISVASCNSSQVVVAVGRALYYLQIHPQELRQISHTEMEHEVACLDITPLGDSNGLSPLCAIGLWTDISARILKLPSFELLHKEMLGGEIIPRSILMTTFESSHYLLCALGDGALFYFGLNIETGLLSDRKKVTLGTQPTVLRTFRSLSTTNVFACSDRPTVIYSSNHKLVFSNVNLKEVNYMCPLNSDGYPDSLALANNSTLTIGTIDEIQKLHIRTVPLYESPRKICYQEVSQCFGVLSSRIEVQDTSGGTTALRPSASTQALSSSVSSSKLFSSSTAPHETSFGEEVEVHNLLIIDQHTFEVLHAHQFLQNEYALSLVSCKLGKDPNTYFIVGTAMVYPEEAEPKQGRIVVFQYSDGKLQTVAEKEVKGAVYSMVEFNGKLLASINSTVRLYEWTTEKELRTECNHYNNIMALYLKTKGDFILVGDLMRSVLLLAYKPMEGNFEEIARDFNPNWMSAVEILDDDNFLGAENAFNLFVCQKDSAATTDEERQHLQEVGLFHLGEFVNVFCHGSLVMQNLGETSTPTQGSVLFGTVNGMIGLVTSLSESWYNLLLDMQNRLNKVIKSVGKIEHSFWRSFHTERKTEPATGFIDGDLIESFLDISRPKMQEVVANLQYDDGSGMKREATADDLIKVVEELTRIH
Summary of the method: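 EC50 comes from a 4-parameter fit of control-normalized luminescence. The luminescence reports HiBiT-NEK7 (endogenous knock-in) complemented by stably expressed LgBiT in Cal51 cells after 24 h compound exposure at 37 °C. Final concentrations ran 1 μM to 0.05 nM, with Endurazine substrate present in the medium throughout.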

[3] = NEK7 degradation, read-out: NanoBiT Dmax
[4] = NEK7 degradation, read-out: NanoBiT DC50

Sequence of CRBN-DDB1 (Q96SW2 whole entry): as the sequence (Q96SW2 whole entry) above
Sequence of CRBN-DDB1 (Q16531 whole entry partner): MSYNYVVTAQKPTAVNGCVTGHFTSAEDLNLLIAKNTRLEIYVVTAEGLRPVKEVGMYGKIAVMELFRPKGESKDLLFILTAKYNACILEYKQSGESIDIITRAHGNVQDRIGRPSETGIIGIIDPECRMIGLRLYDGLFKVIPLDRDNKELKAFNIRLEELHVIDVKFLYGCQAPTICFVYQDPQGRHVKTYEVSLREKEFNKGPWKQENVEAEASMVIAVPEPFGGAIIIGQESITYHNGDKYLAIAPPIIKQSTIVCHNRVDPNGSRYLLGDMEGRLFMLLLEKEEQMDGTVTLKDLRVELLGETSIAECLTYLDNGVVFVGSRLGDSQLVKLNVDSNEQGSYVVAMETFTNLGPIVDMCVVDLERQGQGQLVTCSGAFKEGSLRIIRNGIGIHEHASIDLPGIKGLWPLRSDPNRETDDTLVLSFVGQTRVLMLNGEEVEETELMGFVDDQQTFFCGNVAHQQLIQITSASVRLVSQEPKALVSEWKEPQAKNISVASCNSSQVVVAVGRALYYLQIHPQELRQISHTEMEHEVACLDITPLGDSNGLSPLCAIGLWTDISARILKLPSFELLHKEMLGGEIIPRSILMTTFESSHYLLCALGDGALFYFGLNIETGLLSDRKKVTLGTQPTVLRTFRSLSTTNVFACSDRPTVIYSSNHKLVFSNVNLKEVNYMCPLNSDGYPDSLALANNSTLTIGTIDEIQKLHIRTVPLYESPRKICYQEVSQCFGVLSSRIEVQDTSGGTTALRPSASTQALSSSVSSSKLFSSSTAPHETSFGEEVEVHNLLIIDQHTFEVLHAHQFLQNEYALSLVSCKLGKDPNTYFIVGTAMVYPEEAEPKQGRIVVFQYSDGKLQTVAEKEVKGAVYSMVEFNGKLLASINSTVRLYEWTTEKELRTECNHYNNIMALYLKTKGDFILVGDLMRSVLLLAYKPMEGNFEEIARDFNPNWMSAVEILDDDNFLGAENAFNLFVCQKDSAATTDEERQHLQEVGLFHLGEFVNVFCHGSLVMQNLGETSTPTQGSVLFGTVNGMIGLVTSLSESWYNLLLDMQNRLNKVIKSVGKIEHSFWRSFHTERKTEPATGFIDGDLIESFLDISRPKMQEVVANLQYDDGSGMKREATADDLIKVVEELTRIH

SMILES	EC50 [1] [nM]	EC50 ([1]; HTRF class, Cereblon binding) [nM]	Dmax ([2]; read-out: NEK7 NanoBiT Dmax) [%]	Dmax [2, 3] [%]	DC50 ([2]; read-out: NEK7 NanoBiT DC50) [nM]	DC50 [2, 4] [nM]
CN1CCC(C(=O)NCc2cc(Cl)c(C3CCC(=O)NC3=O)c(Cl)c2)(c2ccc(F)cc2)CC1 (stereo not drawn) [Compound 135, N-(3,5-dichloro-4-(2,6-dioxopiperidin-3-yl)benzyl)-4-(4-fluorophenyl)-1-methylpiperidine-4-carboxamide formate]	20	≤ 100	71	50 to 75	16	≤ 100
O=C1CCC(c2c(Cl)cc(CNC(=O)C3(c4ccnc(F)c4)CC(F)(F)C3)cc2Cl)C(=O)N1 (stereo not drawn) [Compound 136, N-(3,5-dichloro-4-(2,6-dioxopiperidin-3-yl)benzyl)-3,3-difluoro-1-(2-fluoropyridin-4-yl)cyclobutane-1-carboxamide]	60	≤ 100	65	50 to 75	63	≤ 100
O=C1CC(C(=O)NCc2cc(Cl)c(C3CCC(=O)NC3=O)c(Cl)c2)(c2ccc(F)cc2)C1 (stereo not drawn) [Compound 137, N-(3,5-dichloro-4-(2,6-dioxopiperidin-3-yl)benzyl)-1-(4-fluorophenyl)-3-oxocyclobutane-1-carboxamide]	50	≤ 100	97	> 75	1	≤ 100
O=C1CCC(c2ccc(CNC(=O)C3(c4ccc(F)cc4)CCOCC3)cc2Cl)C(=O)N1 (stereo not drawn) [Compound 138]	180	100 to 1000	88	> 75	26	≤ 100
O=C1CCC(c2c(Cl)cc(CNC(=O)C3(c4ccc(F)cc4)CC(F)(F)C3)cc2Cl)C(=O)N1 (stereo not drawn) [Compound 139, N-(3,5-dichloro-4-(2,6-dioxopiperidin-3-yl)benzyl)-3,3-difluoro-1-(4-fluorophenyl)cyclobutane-carboxamide]	40	≤ 100	90	> 75	8	≤ 100
O=C1CCC(c2c(Cl)cc(CNC(=O)C3(c4ccc(F)cc4)COC3)cc2Cl)C(=O)N1 (stereo not drawn) [Compound 140]	90	≤ 100	89	> 75	14	≤ 100
O=C1CCC(c2c(Cl)cc(CNC(=O)C3(c4ccc(F)cc4)CCOC3)cc2Cl)C(=O)N1 (stereo not drawn) [Compound 141]	20	≤ 100	91	> 75	6	≤ 100
O=C1CCC(c2c(Cl)cc(CNC(=O)C3(c4ccc(F)cc4)CCOCC3)cc2Cl)C(=O)N1 (stereo not drawn) [Compound 142]	50	≤ 100	94	> 75	3	≤ 100
O=C1CCC(c2c(Cl)cc(CNC(=O)C3(c4ccncc4)CCCC3)cc2Cl)C(=O)N1 (stereo not drawn) [Compound 143, N-(3,5-dichloro-4-(2,6-dioxopiperidin-3-yl)benzyl)-1-(pyridin-4-yl)cyclopentane-1-carboxamide]	40	≤ 100	92	> 75	3	≤ 100
O=C1CCC(c2c(Cl)cc(CNC(=O)C3(c4ccncc4)CCC3)cc2Cl)C(=O)N1 (stereo not drawn) [Compound 144]	50	≤ 100	78	> 75	6	≤ 100
Cc1cc(C(C)(C)C(=O)NCc2cc(Cl)c(C3CCC(=O)NC3=O)c(Cl)c2)no1 (stereo not drawn) [Compound 145]	430	100 to 1000	86	> 75	10	≤ 100
CC(C)(C(=O)NCc1cc(Cl)c(C2CCC(=O)NC2=O)c(Cl)c1)c1cc2ocnc2cn1 (stereo not drawn) [Compound 146]	180	100 to 1000	91	> 75	5	≤ 100
CC(C)(O)c1cnc(C(C)(C)C(=O)NCc2cc(Cl)c(C3CCC(=O)NC3=O)c(Cl)c2)nc1 (stereo not drawn) [Compound 147]	550	100 to 1000	52	50 to 75	776	100 to 1000
Cn1cccc(C(C)(C)C(=O)NCc2cc(Cl)c(C3CCC(=O)NC3=O)c(Cl)c2)c1=O (stereo not drawn) [Compound 148, N-(3,5-dichloro-4-(2,6-dioxopiperidin-3-yl)benzyl)-2-methyl-2-(1-methyl-2-oxo-1,2-dihydropyridin-3-yl)propanamide]	150	100 to 1000	58	50 to 75	176	100 to 1000
CC(C)(C(=O)NCc1cc(Cl)c(C2CCC(=O)NC2=O)c(Cl)c1)c1cc(F)ccn1 (stereo not drawn) [Compound 149]	130	100 to 1000	85	> 75	12	≤ 100
Cc1nccc(C(C)(C)C(=O)NCc2cc(Cl)c(C3CCC(=O)NC3=O)c(Cl)c2)n1 (stereo not drawn) [Compound 150]	150	100 to 1000	53	50 to 75	91	≤ 100
CC(C)(C(=O)NCc1cc(Cl)c(C2CCC(=O)NC2=O)c(Cl)c1)c1cc(C2CC2)ncn1 (stereo not drawn) [Compound 151]	480	100 to 1000	60	50 to 75	88	≤ 100
CC(C)(C(=O)NCc1cc(Cl)c(C2CCC(=O)NC2=O)c(Cl)c1)c1ccnc(C(F)F)n1 (stereo not drawn) [Compound 156, N-(3,5-dichloro-4-(2,6-dioxopiperidin-3-yl)benzyl)-2-(2-(difluoromethyl)pyrimidin-4-yl)-2-methylpropanamide]	330	100 to 1000	54	50 to 75	435	100 to 1000
CC(C)(C(=O)NCc1cc(Cl)c(C2CCC(=O)NC2=O)c(Cl)c1)c1cc(C#N)ccn1 (stereo not drawn) [Compound 157]	190	100 to 1000	60	50 to 75	178	100 to 1000
Cc1cncnc1C(C)(C)C(=O)NCc1cc(Cl)c(C2CCC(=O)NC2=O)c(Cl)c1 (stereo not drawn) [Compound 158]	320	100 to 1000	91	> 75	8	≤ 100
CC(C)(C(=O)NCc1cc(Cl)c(C2CCC(=O)NC2=O)c(Cl)c1)c1cc(C(F)F)ncn1 (stereo not drawn) [Compound 159]	280	100 to 1000	79	> 75	28	≤ 100
Cc1ccnc(C(C)(C)C(=O)NCc2cc(Cl)c(C3CCC(=O)NC3=O)c(Cl)c2)n1 (stereo not drawn) [Compound 160]	200	100 to 1000	76	> 75	34	≤ 100
CC(C)(C(=O)NCc1cc(Cl)c(C2CCC(=O)NC2=O)c(Cl)c1)c1cnccn1 (stereo not drawn) [Compound 161]	230	100 to 1000	69	50 to 75	54	≤ 100
Cc1cnc(C(C)(C)C(=O)NCc2cc(Cl)c(C3CCC(=O)NC3=O)c(Cl)c2)o1 (stereo not drawn) [Compound 163]	250	100 to 1000	80	> 75	18	≤ 100
